Legend:
Format in all cases: biochemical
thrombin = thrombin (Homo sapiens, UniProt P00734); experiment: Enzyme selectivity: thrombin (chromogenic substrate S-2238); settings: chromogenic substrate S-2238, 37° C.
Experimental: (§1) Determination of Enzyme Selectivity
(§2) Selected compounds were further screened for inhibitory activity against other trypsin-like serine proteases using the appropriate enzyme and chromogenic substrate (Chromogenix AB). The activity against the following human enzymes was tested (substrate in brackets):—plasma kallikrein (S-2302), thrombin (S-2238), plasmin (S-2390) and trypsin (S-2222). The enzyme was incubated at 37° C. with the chromogenic substrate. Residual enzyme activity (initial rate of reaction) was determined by measuring the change in optical absorbance at 405 nm.

Human KLK1 = target: T1, Human KLK1 (Homo sapiens, UniProt P06870); experiment: Determination of the IC50 for KLK1 (fluorogenic substrate H-DVal-Leu-Arg-AFC); settings: 37° C.
T1 construct: purchased Callbiochem (Calbiochem)
In short: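 hKLK1 + H-DVal-Leu-Arg-AFC, 37° C, varied cpd conc. Initial rate by A410 change → residual activity → IC50.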

trypsin = experiment: Enzyme selectivity: trypsin (chromogenic substrate S-2222); settings: human enzyme, chromogenic substrate S-2222, 37° C.
Experimental: as §1, §2

plasma kallikrein = plasma kallikrein (Homo sapiens, UniProt P03952); experiment: Enzyme selectivity: plasma kallikrein (chromogenic substrate S-2302); settings: chromogenic substrate S-2302, 37° C.
Experimental: as §1, §2

plasmin = plasmin (Homo sapiens, UniProt P00747); experiment: Enzyme selectivity: plasmin (chromogenic substrate S-2390); settings: chromogenic substrate S-2390, 37° C.
Experimental: as §1, §2

T1 sequence (P06870 25-262): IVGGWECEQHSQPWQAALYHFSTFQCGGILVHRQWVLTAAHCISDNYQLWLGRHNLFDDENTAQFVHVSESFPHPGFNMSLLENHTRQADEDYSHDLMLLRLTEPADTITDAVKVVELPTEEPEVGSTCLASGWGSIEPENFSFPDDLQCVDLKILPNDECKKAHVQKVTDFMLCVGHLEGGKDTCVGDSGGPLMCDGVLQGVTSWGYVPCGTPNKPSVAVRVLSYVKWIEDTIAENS
Chain of plasmin (P00747 581-810 limits assumed): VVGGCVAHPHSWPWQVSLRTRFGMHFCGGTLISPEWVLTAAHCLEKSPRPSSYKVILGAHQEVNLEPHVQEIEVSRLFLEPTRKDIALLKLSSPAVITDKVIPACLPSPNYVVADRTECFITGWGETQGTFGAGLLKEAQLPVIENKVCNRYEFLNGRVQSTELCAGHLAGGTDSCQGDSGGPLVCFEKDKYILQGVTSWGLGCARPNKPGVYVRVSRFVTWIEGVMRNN
Chain of plasmin (P00747 97-580 partner limits assumed): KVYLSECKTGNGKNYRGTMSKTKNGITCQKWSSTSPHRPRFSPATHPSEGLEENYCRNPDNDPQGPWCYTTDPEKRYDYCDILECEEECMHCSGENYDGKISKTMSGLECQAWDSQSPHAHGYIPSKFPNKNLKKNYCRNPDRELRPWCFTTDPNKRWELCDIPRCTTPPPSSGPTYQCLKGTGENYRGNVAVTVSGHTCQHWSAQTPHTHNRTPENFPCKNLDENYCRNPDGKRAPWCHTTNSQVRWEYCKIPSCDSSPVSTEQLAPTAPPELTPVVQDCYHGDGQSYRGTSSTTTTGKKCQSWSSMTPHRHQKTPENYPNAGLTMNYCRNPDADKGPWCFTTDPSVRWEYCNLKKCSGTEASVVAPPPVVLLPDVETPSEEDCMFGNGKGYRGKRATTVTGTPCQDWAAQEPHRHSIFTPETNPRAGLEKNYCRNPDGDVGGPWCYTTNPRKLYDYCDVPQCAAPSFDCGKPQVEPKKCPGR
Chain of plasma kallikrein (P03952 20-638): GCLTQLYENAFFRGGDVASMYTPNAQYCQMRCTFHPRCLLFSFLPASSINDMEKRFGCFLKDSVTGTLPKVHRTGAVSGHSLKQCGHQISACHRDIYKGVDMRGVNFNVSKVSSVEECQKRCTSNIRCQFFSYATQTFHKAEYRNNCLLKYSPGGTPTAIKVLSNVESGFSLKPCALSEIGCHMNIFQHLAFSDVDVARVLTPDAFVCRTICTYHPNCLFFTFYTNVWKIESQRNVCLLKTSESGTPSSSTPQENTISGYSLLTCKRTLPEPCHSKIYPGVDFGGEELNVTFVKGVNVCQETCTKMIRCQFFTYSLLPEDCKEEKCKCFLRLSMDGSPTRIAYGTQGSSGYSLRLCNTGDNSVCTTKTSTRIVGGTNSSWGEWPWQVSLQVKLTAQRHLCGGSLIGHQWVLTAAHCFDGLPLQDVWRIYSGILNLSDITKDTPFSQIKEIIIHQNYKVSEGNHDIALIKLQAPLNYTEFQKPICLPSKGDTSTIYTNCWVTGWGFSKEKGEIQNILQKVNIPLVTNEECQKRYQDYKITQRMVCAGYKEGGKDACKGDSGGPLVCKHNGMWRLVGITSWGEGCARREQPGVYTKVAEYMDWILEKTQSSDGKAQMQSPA

Structure (SMILES) | IC50 (thrombin) [µM] | IC50 (Human KLK1) [nM] | IC50 (trypsin) [µM] | IC50 (plasma kallikrein) [µM] | IC50 (plasmin) [µM]
CN1CCC[C@@H]1C(=O)N[C@@H](Cc1cccc2ccccc12)C(=O)NCc1ccc(N)nc1 [Example 92, (R)-1-Methyl-pyrrolidine-2-carboxylic acid {(S)-1-[(6-amino-pyridin-3-ylmethyl)-carbamoyl]-2-naphthalen-1-yl-ethyl}-amide] | > 10 | 3.6 | > 10 | > 10 | > 10
Nc1ccc(CNC(=O)[C@H](Cc2cccc3ccccc23)NC(=O)c2ccc[nH]2)cn1 [Example 228, 1H-Pyrrole-2-carboxylic acid {(S)-1-[(6-amino-pyridin-3-ylmethyl)-carbamoyl]-2-naphthalen-1-yl-ethyl}-amide] | > 10 | 32.1 | > 10 | > 10 | > 10
Nc1ccc(CNC(=O)[C@H](Cc2ccc(Cl)c(Cl)c2)NC(=O)[C@H](N)Cc2ccccc2)cn1 [Example 54, (R)-2-Amino-N-[(S)-1-[(6-amino-pyridin-3-ylmethyl)-carbamoyl]-2-(3,4-dichloro-phenyl)-ethyl]-3-phenyl-propionamide] | > 10 | 0.29 | > 10 | > 10 | > 10
CCC(C)[C@@H](N)C(=O)N[C@@H](CC1CCCCC1)C(=O)NCc1ccc(N)nc1 (stereo partly drawn) [Example 20, (R)-2-Amino-3-methyl-pentanoic acid {(S)-1-[(6-amino-pyridin-3-ylmethyl)-carbamoyl]-2-cyclohexyl-ethyl}-amide] | > 10 | 4.3 | > 10 | > 10 | > 10
CC(C)N(C)[C@@H](C)C(=O)N(C)[C@@H](CC1CCCCC1)C(=O)NCc1ccc(N)nc1 [Example 437, (S)—N-{(S)-1-[(6-Amino-pyridin-3-ylmethyl)-carbamoyl]-2-cyclohexyl-ethyl}-2-(isopropyl-methyl-amino)-N-methyl-propionamide] | > 10 | 4.2 | > 10 | > 10 | > 10
CCC(C)[C@H](C(=O)N[C@@H](Cc1csc2ccccc12)C(=O)NCc1ccc(N)nc1)N(C)S(C)(=O)=O (stereo partly drawn) [Example 213, (R)-2-(Methanesulfonyl-methyl-amino)-3-methyl-pentanoic acid {(S)-1-[(6-amino-pyridin-3-ylmethyl)-carbamoyl]-2-benzo[b]thiophen-3-yl-ethyl}-amide] | > 10 | 2.8 | > 10 | > 10 | > 10
CCC(C)[C@@H](N)C(=O)N[C@@H](Cc1cccc2ccccc12)C(=O)NCc1ccc(N)nc1 (stereo partly drawn) [Example 1, (R)-2-Amino-3-methyl-pentanoic acid {(S)-1-[(6-amino-pyridin-3-ylmethyl)-carbamoyl]-2-naphthalen-1-yl-ethyl}-amide] | > 10 | 0.96 | > 10 | > 10 | > 10
Nc1ccc(CNC(=O)[C@H](CC2CCCC3CCCCC32)NC(=O)[C@H](N)Cc2ccc(Cl)cc2)cn1 (stereo partly drawn) [Example 13, (R)-2-Amino-N-[(S)-1-[(6-amino-pyridin-3-ylmethyl)carbamoyl]-2-(decahydro-naphthalen-1-yl)-ethyl]-3-(4-chloro-phenyl)-propionamide] | > 10 | 9.8 | > 10 | > 10 | > 10
CN(C)[C@H](Cc1ccccc1)C(=O)N[C@@H](Cc1ccc(Cl)c(Cl)c1)C(=O)NCc1ccc(N)nc1 [Example 400, (R)—N-[(S)-1-[(6-Amino-pyridin-3-ylmethyl)-carbamoyl]-2-(3,4-dichloro-phenyl)-ethyl]-2-dimethylamino-3-phenyl-propionamide] | > 10 | 1.7 | > 10 | > 10 | > 10

The remaining lines, values ahead:

IC50 (thrombin) [µM] | IC50 (Human KLK1) [nM] | IC50 (trypsin) [µM] | IC50 (plasma kallikrein) [µM] | IC50 (plasmin) [µM] | Structure (SMILES)
> 10 | 3.4 | > 10 | > 10 | > 10 | Cc1cc(C)c(C(=O)N[C@@H](Cc2ccc(F)c(F)c2)C(=O)NCc2ccc(N)nc2)[nH]1 [Example 243, 3,5-Dimethyl-1H-pyrrole-2-carboxylic acid [(S)-1-[(6-amino-pyridin-3-ylmethyl)-carbamoyl]-2-(3,4-difluoro-phenyl)-ethyl]-amide]
> 10 | 10.1 | > 10 | > 10 | > 10 | Cc1cc[nH]c1C(=O)N[C@@H](Cc1ccc(F)c(F)c1)C(=O)NCc1ccc(N)nc1 [Example 226, 3-Methyl-1H-pyrrole-2-carboxylic acid [(S)-1-[(6-amino-pyridin-3-ylmethyl)-carbamoyl]-2-(3,4-difluoro-phenyl)-ethyl]-amide]
> 10 | 0.9 | > 10 | > 10 | > 10 | Cc1cc(C)c(C(=O)N[C@@H](Cc2cccc(C(F)(F)F)c2)C(=O)NCc2ccc(N)nc2C)[nH]1 [Example 277, 3,5-Dimethyl-1H-pyrrole-2-carboxylic acid [(S)-1-[(6-amino-2-methyl-pyridin-3-ylmethyl)-carbamoyl]-2-(3-trifluoromethyl-phenyl)-ethyl]-amide]
> 10 | 0.86 | > 10 | > 10 | > 10 | CN1CCC[C@@H]1C(=O)N[C@@H](Cc1ccc(Cl)c(Cl)c1)C(=O)NCc1ccc(N)nc1 [Example 90, (R)-1-Methyl-pyrrolidine-2-carboxylic acid [(S)-1-[(6-amino-pyridin-3-ylmethyl)-carbamoyl]-2-(3,4-dichloro-phenyl)-ethyl]-amide]
> 10 | 4 | > 10 | > 10 | > 10 | CC(C)N(C)[C@@H](C)C(=O)N[C@@H](Cc1ccc(F)c(F)c1)C(=O)NCc1ccc(N)nc1 [Example 176, (S)—N-[(S)-1-[(6-Amino-pyridin-3-ylmethyl)-carbamoyl]-2-(3,4-difluoro-phenyl)-ethyl]-2-(isopropyl-methyl-amino)-propionamide]
> 10 | 1.1 | > 10 | > 10 | > 10 | CCC(C)[C@@H](N)C(=O)N[C@@H](Cc1cccc(C(F)(F)F)c1)C(=O)NCc1ccc(N)nc1 (stereo partly drawn) [Example 30, (R)-2-Amino-3-methyl-pentanoic acid [(S)-1-[(6-amino-pyridin-3-ylmethyl)-carbamoyl]-2-(3-trifluoromethyl-phenyl)-ethyl]-amide]
> 10 | 2.5 | > 10 | > 10 | > 10 | CC1CCCC(C)N1CC(=O)N[C@@H](Cc1ccc(F)c(F)c1)C(=O)NCc1ccc(N)nc1 (stereo partly drawn) [Example 365, (S)—N-(6-Amino-pyridin-3-ylmethyl)-3-(3,4-difluoro-phenyl)-2-[2-(2,6-dimethyl-piperidin-1-yl)-acetylamino]-propionamide]
> 10 | 0.82 | > 10 | > 10 | > 10 | CCC(C)[C@H](C(=O)N[C@@H](Cc1ccc(Cl)c(Cl)c1)C(=O)NCc1ccc(N)nc1)N(C)C (stereo partly drawn) [Example 398, (R)-2-Dimethylamino-3-methyl-pentanoic acid [(S)-1-[(6-amino-pyridin-3-ylmethyl)-carbamoyl]-2-(3,4-dichloro-phenyl)-ethyl]-amide]
